In patent US20250262201A1, “COMPOUNDS AND METHODS USEFUL FOR STABILIZING PHENYLALANINE HYDROXYLASE MUTATIONS” (Agios Pharmaceuticals, Inc., priority 2022, published 2025) one finds AC50 data, which are given here for 11 compounds.

Each structure is given as a SMILES string.

For this assay, the target named is T1, human PAH with the R408W mutation (Homo sapiens, UniProt P00439, R408W).
T1 construct: expressed in transfected cells
T1 sequence (P00439 1-452 R408W): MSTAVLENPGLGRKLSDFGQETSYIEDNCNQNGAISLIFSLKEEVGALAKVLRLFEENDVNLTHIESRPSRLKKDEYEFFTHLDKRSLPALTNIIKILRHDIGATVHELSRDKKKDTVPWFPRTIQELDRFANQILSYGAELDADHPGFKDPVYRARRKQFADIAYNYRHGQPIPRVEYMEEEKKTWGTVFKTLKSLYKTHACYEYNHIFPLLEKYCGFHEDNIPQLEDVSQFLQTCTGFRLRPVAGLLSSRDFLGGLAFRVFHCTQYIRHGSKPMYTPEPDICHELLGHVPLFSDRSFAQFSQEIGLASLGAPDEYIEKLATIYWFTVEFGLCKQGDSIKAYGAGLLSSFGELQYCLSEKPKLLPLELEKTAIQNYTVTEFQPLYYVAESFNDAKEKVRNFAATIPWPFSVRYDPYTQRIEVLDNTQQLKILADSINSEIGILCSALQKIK
Kind of assay: Cell Based Phenylalanine Flux Assay. The note with it: A375 cells expressing human R408W PAH; 24 hrs compound incubation; 13C-Tyrosine by LC-MS; average where tested multiple times; read-out: AC50.
By AC50 is commonly meant the concentration giving half of the maximal activity seen. For `C[C@@H]1CN(C(=O)c2oc(C(C)(C)O)nc2C2CC2)[C@H](c2cc3ccccc3cn2)c2nc[nH]c21` [Example 402, (4-cyclopropyl-2-(2-hydroxypropan-2-yl)oxazol-5-yl)((4R,7R)-4-(isoquinolin-3-yl)-7-methyl-6,7-dihydro-1H-imidazo[4,5-c]pyridin-5(4H)-yl)methanone], the half-maximal activity concentration (AC50) was under 500 nM.

For `Cc1nc(-c2ccccn2)oc1C(=O)N1C[C@H](C)c2[nH]cnc2[C@H]1c1cc2ccccc2cn1` [Example 403, ((4R,7S)-4-(isoquinolin-3-yl)-7-methyl-6,7-dihydro-1H-imidazo[4,5-c]pyridin-5(4H)-yl)(4-methyl-2-(pyridin-2-yl)oxazol-5-yl)methanone], the concentration at half-maximal activity (AC50) was under 500 nM.

Take `Cc1nc(-c2ccccn2)oc1C(=O)N1C[C@H](C)c2[nH]cnc2[C@@H]1c1cc2ccccc2cn1` [Example 404, ((4S,7S)-4-(isoquinolin-3-yl)-7-methyl-6,7-dihydro-1H-imidazo[4,5-c]pyridin-5(4H)-yl)(4-methyl-2-(pyridin-2-yl)oxazol-5-yl)methanone]: the half-maximal activity concentration (AC50) was over 5000 nM.

Regarding `Cc1nc(-c2ccccn2)oc1C(=O)N1C[C@@H](C)c2[nH]cnc2[C@@H]1c1cc2ccccc2cn1` [Example 405, [(4S,7R)-4-(3-isoquinolyl)-7-methyl-1,4,6,7-tetrahydroimidazo[4,5-c]pyridin-5-yl]-[4-methyl-2-(2-pyridyl)oxazol-5-yl]methanone], the half-maximal activity concentration (AC50) lay in the range of 1000 to 5000 nM.

Turning to `Cc1nc(-c2ccccn2)oc1C(=O)N1C[C@@H](C)c2[nH]cnc2[C@H]1c1cc2ccccc2cn1` [Example 406, [(4R,7R)-4-(3-isoquinolyl)-7-methyl-1,4,6,7-tetrahydroimidazo[4,5-c]pyridin-5-yl]-[4-methyl-2-(2-pyridyl)oxazol-5-yl]methanone], the half-maximal activity concentration (AC50) is under 500 nM.

On to `C[C@H]1CN(C(=O)c2oc(-c3ccccn3)nc2C2CC2)[C@H](c2cc3ccccc3cn2)c2nc[nH]c21` [Example 407, (4-cyclopropyl-2-(pyridin-2-yl)oxazol-5-yl)((4R,7S)-4-(isoquinolin-3-yl)-7-methyl-6,7-dihydro-1H-imidazo[4,5-c]pyridin-5(4H)-yl)methanone], for which the AC50 is under 500 nM.

For the compound `C[C@H]1CN(C(=O)c2oc(-c3ccccn3)nc2C2CC2)[C@@H](c2cc3ccccc3cn2)c2nc[nH]c21` [Example 408, (4-cyclopropyl-2-(pyridin-2-yl)oxazol-5-yl)((4S,7S)-4-(isoquinolin-3-yl)-7-methyl-6,7-dihydro-1H-imidazo[4,5-c]pyridin-5(4H)-yl)methanone], the AC50 fell in the range of 500 to 1000 nM.

`C[C@@H]1CN(C(=O)c2oc(-c3ccccn3)nc2C2CC2)[C@H](c2cc3ccccc3cn2)c2nc[nH]c21` [Example 410, (4-cyclopropyl-2-(pyridin-2-yl)oxazol-5-yl)((4R,7R)-4-(isoquinolin-3-yl)-7-methyl-6,7-dihydro-1H-imidazo[4,5-c]pyridin-5(4H)-yl)methanone]: the concentration at half-maximal activity (AC50) is under 500 nM.

For `CC(C)(F)c1nnc(C(=O)N2CCc3[nH]cnc3[C@H]2c2cc3ccccc3cn2)o1` [Example 419, (R)-(5-(2-fluoropropan-2-yl)-1,3,4-oxadiazol-2-yl)(4-(isoquinolin-3-yl)-6,7-dihydro-1H-imidazo[4,5-c]pyridin-5(4H)-yl)methanone], the AC50 was under 500 nM.

With `O=C(C1CN(CC(F)(F)F)C1)N1CCc2[nH]cnc2[C@H]1c1cc2ccccc2cn1` [Example 420, (R)-(4-(isoquinolin-3-yl)-6,7-dihydro-1H-imidazo[4,5-c]pyridin-5(4H)-yl)(1-(2,2,2-trifluoroethyl)azetidin-3-yl)methanone], the AC50 was in the range of 1000 to 5000 nM.

For `CC(C)(O)c1nc(C(=O)N2CCc3[nH]cnc3[C@H]2c2cc3ccccc3cn2)no1` [Example 421, (R)-(5-(2-hydroxypropan-2-yl)-1,2,4-oxadiazol-3-yl)(4-(isoquinolin-3-yl)-6,7-dihydro-1H-imidazo[4,5-c]pyridin-5(4H)-yl)methanone], the AC50 lay within 500 to 1000 nM.
